Results on 41 compounds are retold here after ChEMBL document CHEMBL1201862, “PubChem BioAssay data set” (2004).

Molecules are shown by their SMILES. Activity calls are given as the source filed them. Rule as the data show it, for most assays here: actives have a measured EC50 and inactives only a lower limit. A value given as a limit tells only on which side of the number the result lay.

The term EC50 denotes the midpoint of the concentration-response curve. A word on the AC50: it is the midpoint of the concentration-response curve, whichever way the signal moves.

Test [1] can be described thus: Luminescence Cell-Based Dose Confirmation HTS to Identify Activators of 5'UTR Stem-Loop Driven Alpha-Synuclein mRNA Translation in H4 Neuroglioblastoma Cells. [Related pubchem assays: 1829 (Project Summary), 1814 (Primary HTS)]. Format: functional.
The nature of test [2]: Luminescence Cell-Based Dose Response HTS to Identify Activators of Luciferase Translation or Activity in H4 […] Cells. [Related pubchem assays: 1829 (Project Summary), 1814 (Primary HTS)]. Format: functional.
The subject of test [3] is H4. As to the kind of experiment: Luminescence Cell-Based Dose Response HTS to Identify Activators of 5'UTR Stem-Loop Driven Prion Protein mRNA Translation in H4 Neuroglioblastoma Cells. [Related pubchem assays: 1829 (Project Summary), 1814 (Primary HTS)]. Format: functional. The following applies: Homo sapiens.
Test [4] can be described thus: inhibitors of intracellular T. cruzi replication, confirmation, NIH3T3 host cells, beta-gal luminescence (AID 2044).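 Also: intracellular parasites grown in NIH/3T3 mouse fibroblasts as host cells; luminescent beta-galactosidase reporter signal from transgenic T. cruzi replicating inside host cells; inhibitors lower the luminescence signal.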 Format: functional, cell-based.
A short description of test [5]: cytotoxicity toward NIH3T3 fibroblasts, dose response, counter-screen, cell-based, ATP luminescence, mouse fibroblasts (AID 2010).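 Also: cells exposed to compound for about 90 hours before reading.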 Format: functional.
For test [6], the target named is Cytochrome P450 2C9 (Homo sapiens, UniProt P11712).
Sequence of Cytochrome P450 2C9 (P11712 whole entry): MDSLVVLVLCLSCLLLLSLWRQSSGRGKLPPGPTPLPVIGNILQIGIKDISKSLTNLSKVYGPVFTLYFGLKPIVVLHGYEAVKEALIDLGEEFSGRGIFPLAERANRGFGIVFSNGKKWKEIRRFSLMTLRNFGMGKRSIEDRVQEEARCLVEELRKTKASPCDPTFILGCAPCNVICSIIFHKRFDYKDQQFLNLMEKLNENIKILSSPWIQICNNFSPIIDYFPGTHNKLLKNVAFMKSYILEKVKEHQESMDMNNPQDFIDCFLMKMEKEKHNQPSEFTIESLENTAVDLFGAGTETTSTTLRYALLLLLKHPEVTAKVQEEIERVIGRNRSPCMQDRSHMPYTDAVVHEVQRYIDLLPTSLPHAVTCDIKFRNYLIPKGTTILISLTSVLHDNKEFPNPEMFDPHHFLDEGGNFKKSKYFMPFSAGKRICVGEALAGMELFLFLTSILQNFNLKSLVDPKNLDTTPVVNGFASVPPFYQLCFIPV

With `CN(C(=O)c1cccc(N2C(=O)C3C4C=CC(C4)C3C2=O)c1)C1CCCCC1` (stereo not given), the EC50 in test [1], in test [2] and in test [3] was > 120 µM (not active) throughout.

`CSCCC(=O)Nc1cc(S(=O)(=O)N2CCOCC2)ccc1N1CCN(C)CC1`: the EC50 in test [4] is 1.94 µM (active); in test [5] it was > 60 µM (not active).

`CNC(=S)N1CCN(c2cccc(OC)c2)CC1`: the half-maximal activity concentration (AC50) in test [6] was 22.4 µM (inconclusive).

Regarding `CC1=CC(C)(C)N2C(=O)C3(C(C#N)=C(N)Oc4cc(C)oc(=O)c43)c3cc(C)cc1c32` (stereo not given), the EC50 in test [4] was 0.253 µM (active); in test [5], > 60 µM (not active).

In the case of `Cn1c(C(=O)NCc2cccnc2)cc2sc(Cl)cc21`, the EC50 was 0.488 µM (active) in test [4] and > 60 µM (not active) in test [5].

`NC(=O)NCc1ccc(Cl)cc1`: the AC50 in test [6] was 0.0501 µM (inconclusive).

Consider `N#Cc1c(N)n(Cc2ccccc2)c(=O)c2cc([N+](=O)[O-])ccc12`, for which the EC50 in test [4] is 1.41 µM (active); in test [5] it was > 60 µM (not active).

For the compound `COc1cc2cc3c(N)c(C(=O)NCc4ccco4)sc3nc2cc1OC`, the results for the EC50 in test [1], in test [2] and in test [3] were 73.7 µM (active), 49.9 µM (active) and 11.1 µM (active), respectively.

Regarding `Cc1ccc(C2NC(=O)c3c(sc(C)c3C)N2)c(O)c1` (stereo not given), the values for the EC50 in test [1], in test [2] and in test [3] were 3.83 µM (active), 22.4 µM (active) and 21.7 µM (active), respectively.

In the case of `COc1ccc2[nH]c3c(c2c1)CN(C)CC3`, the AC50 in test [6] is 39.8 µM (inconclusive).

In the case of `CC(C)c1ccc(CNc2ccc3c(c2)ncn3C)cc1`, the EC50 in test [1] was 0.217 µM (active); in test [2] it was 0.228 µM (inconclusive); in test [3], > 120 µM (not active).

Regarding `c1ccc(-c2cc(-c3nc4ccccc4[nH]3)c3ccccc3n2)cc1`, the EC50 in test [4] was 1.7 µM (active); in test [5], > 60 µM (not active).

Regarding `CCOc1ccc(C(=O)Nc2c(C(=O)N3CCC(N4CCCCC4)CC3)oc3ccccc23)cc1`, the concentration giving a half-maximal response (EC50) in test [4] is 6.28 µM (active); in test [5] it was > 60 µM (not active).

Take `CC1(C)OC2OC(COC(=O)c3ccccc3)C3OC(C)(C)OC3C2O1` (stereo not given): the EC50 in test [1] is 15.5 µM (active); in test [2] it was 10.1 µM (active); in test [3] it was 17.3 µM (active).

Regarding `Cn1c(=O)c(-c2cccs2)nc2cnc(Oc3ccccc3)nc21`, in test [6], the AC50 is 20 µM (inconclusive).

For `CC1C(=O)OC2C1CCC1(C)CCC(=O)C(C)C21` (stereo not given), the EC50 was 2.61 µM (active) in test [4] and > 60 µM (not active) in test [5].

As to `O=C(c1cnccn1)N1CCC2(CC1)CN(c1ccncc1)C2`, the AC50 in test [6] is 25.1 µM (inconclusive).

For `O=C(/C=C/c1ccc([N+](=O)[O-])s1)N1CCN(c2ccccc2)CC1`, the results for the EC50 in test [4] and in test [5] were 1.81 µM (active) and 9.18 µM (active), respectively.

Turning to `O=[N+]([O-])c1cccc(-c2nnn(C34CC5CC(CC(C5)C3)C4)n2)c1`, the EC50 in test [1] is > 120 µM (not active); in test [2], 7.38 µM (active); in test [3] it was 15 µM (active).

For `CC(C)c1ccc(NC(=O)N2CCc3ccccc3C2)cc1`, the EC50 is 12.1 µM (active) in test [1], 12.2 µM (active) in test [2] and 18.3 µM (active) in test [3].

On to `CCOCCCN1C(=O)CN(C2CCCCC2)C(=O)C1c1ccc(OCC)c(OC)c1` (stereo not given), for which, in test [6], the AC50 is 11.2 µM (inconclusive).

For `Cc1cc(C)c(C)c(C(=O)CSc2nnc(-c3ccc4[nH]c(C)c(C)c4c3)o2)c1C`, the EC50 is 1.61 µM (active) in test [4] and > 60 µM (not active) in test [5].

`CCOc1ccc(/C=C/C(=O)C(C(N)=O)=C2SCCS2)cc1`: the EC50 in test [1] is 1.98 µM (active); in test [2], > 120 µM (not active); in test [3], 7.17 µM (active).

As to `CCCOc1cccc(CN2CCCCC2c2cccnc2)c1` (stereo not given), the EC50 is 1.53 µM (active) in test [4] and > 60 µM (not active) in test [5].

Consider `N=C(NOC(=O)C1CCCCC1)c1ccc(Br)cc1`, for which the values for the EC50 in test [1], in test [2] and in test [3] were 27.6 µM (active), 28.7 µM (active) and 1.23 µM (active), respectively.

Consider `Cc1cccc(CNc2ncncc2-c2cccc(NS(C)(=O)=O)c2)c1`, for which the AC50 in test [6] was 1 µM (inconclusive).

With `Cc1ccnc(NC(=O)CCCNC(=O)c2ccc(Cl)cc2)c1`, the EC50 in test [1] is 18.2 µM (active); in test [2] it was 24.3 µM (active); in test [3], 51.9 µM (active).

Consider `Brc1ccccc1C1CC(c2ccccc2)=Nc2ccccc2N1` (stereo not given), for which the EC50 in test [1] was 9.58 µM (active); in test [2], 11.5 µM (active); in test [3], 36.5 µM (active).

Regarding `CCCCOC(=O)c1[nH]c(C)c(C(=O)OC)c1C`, the results for the EC50 in test [1], in test [2] and in test [3] were 2.88 µM (active), 51.1 µM (active) and 37.7 µM (active), respectively.

`O=C(Nc1ccc(-n2ccc(C(F)(F)F)n2)cc1)Nc1cccc(Cl)c1`: the EC50 is 2.01 µM (active) in test [4] and 6.82 µM (active) in test [5].

Turning to `O=C(NCCCn1ccnc1)c1sc2cccc(F)c2c1Cl`, the half-maximal effective concentration (EC50) in test [4] was 2.02 µM (active); in test [5] it was > 60 µM (not active).

Regarding `CCOC(=O)c1sc(N(Cc2ccccc2)C(=O)CN2C(=O)CN(C)C2=O)nc1C`, the AC50 in test [6] was 11.2 µM (inconclusive).

For `Cc1cc(Oc2ccccc2)nc(NCc2ccccc2)n1`, in test [6], the AC50 was 10 µM (inconclusive).

On to `NC(=O)c1ccccc1Nc1nc2nc3ccccc3c(=O)n2cc1Br`, for which the EC50 in test [1] is > 120 µM (not active); in test [2], 8.23 µM (active); in test [3], > 120 µM (not active).

As to `Cc1cc(C)c2c(CN3CCC(C)CC3)cc(=O)oc2c1`, the EC50 in test [1] is 0.419 µM (active); in test [2] it was > 120 µM (not active); in test [3] it was 26.3 µM (active).

On to `COc1ccc2cc(C(=O)NCC3CCCO3)[nH]c2c1` (stereo not given), for which the EC50 in test [1] was 7.02 µM (active); in test [2], 22.9 µM (active).

Regarding `Cc1ccc(-c2nn(-c3ccccc3)cc2C(=O)Nc2ccc(C)c(S(=O)(=O)N3CCOCC3)c2)cc1`, the EC50 in test [1] is > 120 µM (not active); in test [2], > 120 µM (not active); in test [3], > 120 µM (not active); in test [4], 1.57 µM (active); in test [5], > 60 µM (not active).

For the compound `Cc1ccc(-c2nc3ccccc3n3nnnc23)cc1`, the figures for the EC50 in test [1], in test [2] and in test [3] were 0.363 µM (active), 10.1 µM (active) and 4.81 µM (active), respectively.

As for `COc1ccc2c(c1OC)CN1CCc3cc4c(cc3C1C2)OCO4` (stereo not given) [TETRAHYDROBERBERINE], the EC50 in test [4] was 3.43 µM (active); in test [5], > 60 µM (not active).

In the case of `CC(=O)c1cn(CCCCCCCCCCn2cc(C(C)=O)c(=O)[nH]c2=O)c(=O)[nH]c1=O`, the AC50 in test [6] is 3.16 µM (inconclusive).

As to `Cc1cccc(N2CCN(C(c3ccncc3)c3nnnn3C(C)(C)C)CC2)c1C` (stereo not given), the EC50 in test [4] is 2.57 µM (active); in test [5] it was > 60 µM (not active).
